# Where two headings read alike, the source gives them in different places.
# Key:
# NUGC-3 cells = assay: NUGC-3 cell proliferation assay (CTG, 7 days); type: cell-based, human
# Method in brief: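 Cells (200/well) in 1640 medium with 10% serum exposed to 10-point, 3-fold DMSO dilutions (duplicates) for 7 days at 37°C. Viability read by CellTiter-Glo luminescence; % inhibition normalized to DMSO and blank, IC50 from variable-slope nonlinear fit.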
# [1] = target: CYP 3A4 enzyme in human liver microsomes (Homo sapiens, UniProt P08684); assay: CYP3A4 inhibition experiment in human liver microsomes
# Sequence of CYP 3A4 enzyme in human liver microsomes (P08684 whole entry): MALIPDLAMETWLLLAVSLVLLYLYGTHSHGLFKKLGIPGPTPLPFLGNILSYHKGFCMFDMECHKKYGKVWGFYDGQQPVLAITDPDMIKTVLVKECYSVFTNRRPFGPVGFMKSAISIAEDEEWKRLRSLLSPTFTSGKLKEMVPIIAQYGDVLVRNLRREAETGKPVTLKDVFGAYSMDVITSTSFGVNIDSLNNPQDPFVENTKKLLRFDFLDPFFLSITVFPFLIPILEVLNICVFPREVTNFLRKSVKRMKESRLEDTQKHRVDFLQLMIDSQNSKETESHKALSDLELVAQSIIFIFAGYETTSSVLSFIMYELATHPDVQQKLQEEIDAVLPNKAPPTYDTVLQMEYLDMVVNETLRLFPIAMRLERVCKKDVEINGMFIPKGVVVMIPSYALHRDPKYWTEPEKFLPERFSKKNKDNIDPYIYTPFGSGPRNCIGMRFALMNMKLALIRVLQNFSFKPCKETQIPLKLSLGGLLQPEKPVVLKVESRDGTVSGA
# Protocol: The inhibitory effects of the test compounds on CYP 3A4T (with testosterone as substrate) and 3A4M (with midazolam as substrate) in human liver microsomes were evaluated in vitro to assess the medication safety of the compounds.
# This study used the human liver microsome system and the cytochrome P450 enzyme probe substrate recommended by FDA guidelines for in vitro drug interaction studies to investigate the inhibition of the CYP 3A4 enzyme in human liver microsomes by the test compounds.
# Test group (TG): Human liver microsomes were incubated with different concentrations of test compounds, NADPH (final concentration 2.00 mM) and probe substrates of different sub-enzymes (Table 4) for 5 min.
# Positive control group (PC): Human liver microsomes were incubated with inhibitors (Table 4), NADPH (final concentration 2.00 mM) and probe substrates of different sub-enzymes (Table 4) for 5 min. Table 4 Probe substrates of sub-enzymes, inhibitors and incubation systems
# The system was pre-incubated at 37°C for 5 min, and then 15 µL of 8 mM NADPH solution preheated at 37°C for 5-10 min to start the reaction. After incubation of the 96-well plate at 37°C for 5 min, 180 µL of acetonitrile:methanol (ACN:MeOH=1:1) solution containing internal standard (IS) was added to terminate the reaction. […] 80 µL of the supernatant was taken, added to 120 µL of ultrapure water, shaken evenly, and then detected by LC-MS/MS.
# 199 µL of 0.2 mg/mL HLM and 1 µL of 1 mM positive control inhibitor (ketoconazole) working solutions were taken and mixed evenly. 30 µL of the drug-containing liver microsome solution was taken and added to a 96-well plate, then 10 µL of substrate working solution (20 µM midazolam) was added, in duplicate. The system was pre-incubated at 37°C for 5 min, and then 15 µL of 8 mM NADPH solution preheated at 37°C for 5-10 min to start the reaction. After incubation of the 96-well plate at 37°C for 5 min, 180 µL of ACN:MeOH(1:1) solution containing IS was added to terminate the reaction. […] 80 µL of the supernatant was taken, added to 120 µL of ultrapure water, shaken evenly, and then detected by LC-MS/MS.
# 4.2.5.1 The relative activity of CYP450 sub-enzymes at different concentrations was calculated by dividing the peak area ratio (analyte peak area/internal standard peak area) of metabolites in the presence of the test sample or positive control by the peak area ratio of metabolites in the solvent control sample in the absence of the test article or positive control, according to the following formula: [formula] [formula]
# 4.2.5.2 Half maximal inhibitory concentration (IC50) was obtained by fitting according to the following model formula using Prism software: Y = Bottom + (Top−Bottom)/(1+10^(∧)((LogIC50−X)×HillSlope)) [formula]
# X is the test sample concentration converted to logarithm (Log µM), Y is the relative activity (% of NC), Bottom and Top represent the percentage of enzyme activity at the bottom platform and top platform of the curve, respectively, and HillSlope represents the slope; to optimize the fitting effect, the use of other (nonlinear) dose-response models for fitting is not considered as a deviation from the protocol.
# p53-Y220C mutant protein = target: T1, p53-Y220C mutant protein (Homo sapiens, UniProt P04637, Y220C); assay: In vitro DNA binding activity assay (TR-FRET); type: biochemical; conditions: concentration required to increase the binding activity of protein to DNA by 50%
# T1 construct: The recombinant Y220C p53 DBD protein with his-tag
# Method in brief: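 His-tagged Y220C p53 DBD was equilibrated with compound 60 min at room temperature, then biotin-DNA, anti-6His-Eu and streptavidin-d2 were added and incubated overnight in the dark. TR-FRET 665/615 nm ratio, background-corrected, was expressed as % activity versus vehicle; SC150 is the concentration raising DNA binding by 50%.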
# [2] = Homo sapiens, NUGC-3, 168 h, NUGC-3 cell proliferation, 7 days, CTG, read-out: IC50
# [3] = CYP 3A4M IC50, human liver microsomes, midazolam as substrate
# [4] = CYP 3A4T IC50, human liver microsomes, testosterone as substrate
smiles,measurement,setting,value
"CC(n1ncc(C(=O)NCC#Cc2nn3c(N[C@@H]4CCN(C)C[C@@H]4F)cccc3c2CC(F)(F)F)c1N)C(F)(F)F (single isomer, unassigned) [Compound 355A]",IC50,NUGC-3 cells; [2],0.167 µM
same,IC50,[1]; [3],> 30 µM
same,IC50,[1]; [4],14.1 µM
same,SC150,p53-Y220C mutant protein,7 nM
"CC(n1ncc(C(=O)NCC#Cc2nn3c(N[C@@H]4CCN(C)C[C@@H]4F)cccc3c2CC(F)(F)F)c1N)C(F)(F)F (single isomer, unassigned) [Compound 355B]",IC50,"NUGC-3 cells; NUGC-3 cell proliferation, 7 days, CTG, read-out: IC50",0.154 µM
same,IC50,[1]; [3],12.5 µM
same,IC50,[1]; [4],13.7 µM
same,SC150,p53-Y220C mutant protein,16 nM
"CCn1cc(C(=O)NCC#Cc2nn3c(N[C@@H]4CCN(C)C[C@@H]4F)cccc3c2CC(F)(F)F)cn1 [Compound 004, 1-ethyl-N-[3-(7-{[(3S,4R)-3-fluoro-1-methylpiperidin-4-yl]amino}-3-(2,2,2-trifluoroethyl)pyrazolo[1,5-a]pyridin-2-yl)prop-2-yn-1-yl]-1H-pyrazole-4-carboxamide]",IC50,[1]; [3],> 30 µM
same,IC50,[1]; [4],> 30 µM
same,SC150,p53-Y220C mutant protein,6 nM
"COC(C)(C)Cn1cc(C(=O)NCC#Cc2nn3c(N[C@@H]4CCN(C)C[C@@H]4F)cccc3c2CC(F)(F)F)cn1 [Compound 039, N-[3-(7-{[(3S,4R)-3-fluoro-1-methylpiperidin-4-yl]amino}-3-(2,2,2-trifluoroethyl)pyrazolo[1,5-a]pyridin-2-yl)prop-2-yn-1-yl]-1-(2-methoxy-2-methylpropyl)-1H-pyrazole-4-carboxamide]",IC50,[1]; [3],20.2 µM
same,IC50,[1]; [4],27.8 µM
same,SC150,p53-Y220C mutant protein,10 nM
"CN1CC[C@@H](Nc2cccc3c(CC(F)(F)F)c(C#CCNC(=O)c4ccn(C(C)(C)C)c4)nn23)[C@@H](F)C1 [Compound 087, 1-(tert-butyl)-N-(3-(7-{[(3S,4R)-3-fluoro-1-methylpiperidin-4-yl]amino}-3-(2,2,2-trifluoroethyl)pyrazolo[1,5-a]pyridin-2-yl)prop-2-yn-1-yl)-1H-pyrrole-3-carboxamide]",IC50,NUGC-3 cells; [2],1.37 µM
same,IC50,[1]; [3],> 30 µM
same,IC50,[1]; [4],> 30 µM
same,SC150,p53-Y220C mutant protein,19 nM
"CN1CC[C@@H](Nc2cccc3c(CC(F)(F)F)c(C#CCNC(=O)c4cnn5c4CC(C)(C)C5)nn23)[C@@H](F)C1 [Compound 146, N-[3-(7-{[(3S,4R)-3-fluoro-1-methylpiperidin-4-yl]amino}-3-(2,2,2-trifluoroethyl)pyrazolo[1,5-a]pyridin-2-yl)prop-2-yn-1-yl]-5,5-dimethyl-5,6-dihydro-4H-pyrrolo[1,2-b]-1Hpyrazole-3-carboxamide]",IC50,"NUGC-3 cells; Homo sapiens, NUGC-3, 168 h",0.955 µM
same,IC50,[1]; [3],9.7 µM
same,IC50,[1]; [4],10.5 µM
same,SC150,p53-Y220C mutant protein,13 nM
"CN1CC[C@@H](Nc2cccc3c(CC(F)(F)F)c(C#CCNC(=O)c4cnn(C5(C)CC5)c4N)nn23)[C@@H](F)C1 [Compound 263, 5-amino-N-[3-(7-{[(3S,4R)-3-fluoro-1-methylpiperidin-4-yl]amino}-3-(2,2,2-trifluoroethyl)pyrazolo[1,5-a]pyridin-2-yl)prop-2-yn-1-yl]-1-(1-methylcyclopropyl)-1H-pyrazole-4-carboxamide]",IC50,NUGC-3 cells; [2],0.268 µM
same,IC50,[1]; [3],> 30 µM
same,IC50,[1]; [4],16.4 µM
same,SC150,p53-Y220C mutant protein,4 nM
"CN1CC[C@@H](Nc2cccc3c(CC(F)(F)F)c(C#CCNC(=O)c4cnn5c4COCC5)nn23)[C@@H](F)C1 [Compound 274, N-[3-(7-{[(3S,4R)-3-fluoro-1-methylpiperidin-4-yl]amino}-3-(2,2,2-trifluoroethyl)pyrazolo[1,5-a]pyridin-2-yl)prop-2-yn-1-yl]-6,7-dihydro-4H-pyrazolo[5,1-c][1,4]oxazine-3-carboxamide]",IC50,NUGC-3 cells; [2],0.611 µM
same,IC50,[1]; [3],> 30 µM
same,IC50,[1]; [4],> 30 µM
same,SC150,p53-Y220C mutant protein,12 nM
"CN1CC[C@@H](Nc2cccc3c(CC(F)(F)F)c(C#CCNC(=O)c4ccc(N5CCOCC5)nc4)nn23)[C@@H](F)C1 [Compound 275, N-[3-(7-{[(3S,4R)-3-fluoro-1-methylpiperidin-4-yl]amino}-3-(2,2,2-trifluoroethyl)pyrazolo[1,5-a]pyridin-2-yl)prop-2-yn-1-yl]-(6-morpholin-4-yl)pyridine-3-carboxamide]",IC50,NUGC-3 cells; [2],0.901 µM
same,IC50,[1]; [3],> 30 µM
same,IC50,[1]; [4],> 30 µM
same,SC150,p53-Y220C mutant protein,27 nM
"CN1CC[C@@H](Nc2cccc3c(CC(F)(F)F)c(C#CCNC(=O)c4cc(Cl)n(C)c4)nn23)[C@@H](F)C1 [Compound 326, 5-chloro-N-(3-(7-{[(3S,4R)-3-fluoro-1-methylpiperidin-4-yl]amino}-3-(2,2,2-trifluoroethyl)pyrazolo[1,5-a]pyridin-2-yl)prop-2-yn-1-yl)-1-methyl-1H-pyrrole-3-carboxamide]",IC50,NUGC-3 cells; [2],1.18 µM
same,SC150,p53-Y220C mutant protein,28 nM
"CN1CC[C@@H](Nc2cccc3c(CC(F)(F)F)c(C#CCNC(=O)c4ccc(N(C)C)nc4)nn23)[C@@H](F)C1 [Compound 328, 6-dimethylamino-N-[3-(7-{[(3S,4R)-3-fluoro-1-methylpiperidin-4-yl]amino}-3-(2,2,2-trifluoroethyl)pyrazolo[1,5-a]pyridin-2-yl)prop-2-yn-1-yl]pyridine-3-carboxamide]",IC50,NUGC-3 cells; [2],1.21 µM
same,SC150,p53-Y220C mutant protein,30 nM
"CCc1ccc(C(=O)NCC#Cc2nn3c(N[C@@H]4CCN(C)C[C@@H]4F)cccc3c2CC(F)(F)F)cn1 [Compound 331, 6-ethyl-N-[3-(7-{[(3S,4R)-3-fluoro-1-methylpiperidin-4-yl]amino}-3-(2,2,2-trifluoroethyl)pyrazolo[1,5-a]pyridin-2-yl)prop-2-yn-1-yl]pyridine-3-carboxamide]",IC50,NUGC-3 cells; [2],1.72 µM
same,SC150,p53-Y220C mutant protein,36 nM
"Cc1ccc(C(=O)NCC#Cc2nn3c(N[C@@H]4CCN(C)C[C@@H]4F)cccc3c2CC(F)(F)F)cn1 [Compound 332, N-[3-(7-{[(3S,4R)-3-fluoro-1-methylpiperidin-4-yl]amino}-3-(2,2,2-trifluoroethyl)pyrazolo[1,5-a]pyridin-2-yl)prop-2-yn-1-yl]-6-methylnicotinamide]",IC50,NUGC-3 cells; [2],1.71 µM
same,SC150,p53-Y220C mutant protein,29 nM
CCC(C)(C)n1ncc(C(=O)NCC#Cc2nn3c(N[C@@H]4CCN(C)C[C@@H]4F)cccc3c2CC(F)(F)F)c1N [Compound 351],IC50,[1]; [3],18.1 µM
same,IC50,[1]; [4],22 µM
same,SC150,p53-Y220C mutant protein,7 nM
"CC(C)(C)n1ncc(C(=O)NCC#Cc2nn3c(N[C@@H]4CCNC[C@@H]4F)cccc3c2CC(F)(F)F)c1N [Compound 353-4, 5-amino-1-tert-butyl-N-[3-(7-{[(3S,4R)-3-fluoropiperidin-4-yl]amino}-3-(2,2,2-trifluoroethyl)pyrazolo[1,5-a]pyridin-2-yl)prop-2-yn-1-yl]-1H-pyrazole-4-carboxamide]",IC50,NUGC-3 cells; [2],0.181 µM
same,SC150,p53-Y220C mutant protein,9 nM
"CCN1CC[C@@H](Nc2cccc3c(CC(F)(F)F)c(C#CCNC(=O)c4cnn(C(C)C)c4N)nn23)[C@@H](F)C1 [Compound 365, 5-amino-N-(3-(7-{[(3S,4R)-1-ethyl-3-fluoropiperidin-4-yl]amino}-3-(2,2,2-trifluoroethyl)pyrazolo[1,5-a]pyridin-2-yl)prop-2-yn-1-yl)-1-isopropyl-1H-pyrazole-4-carboxamide]",IC50,NUGC-3 cells; [2],0.127 µM
same,SC150,p53-Y220C mutant protein,5 nM
